Source: ChEMBL document CHEMBL1201862, “PubChem BioAssay data set” (2004)
Active and inactive are the calls of the source.

Columns and labels:
Escherichia coli = experiment: microbe, parasite or virus in culture
Cytochrome P450 2C19 = Cytochrome P450 2C19 (Homo sapiens, UniProt P33261); experiment: Cytochrome panel assay with activity outcomes. Panel member name: p450-cyp2c19 Compounds with AC50 equal or less than 10 uM are considered active; type: functional; conditions: read-out: AC50
Cytochrome P450 2D6 = Cytochrome P450 2D6 (Homo sapiens, UniProt P10635);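 note: CYP2D6 member of a cytochrome P450 panel assay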
Sequence of Cytochrome P450 2D6 (P10635 whole entry): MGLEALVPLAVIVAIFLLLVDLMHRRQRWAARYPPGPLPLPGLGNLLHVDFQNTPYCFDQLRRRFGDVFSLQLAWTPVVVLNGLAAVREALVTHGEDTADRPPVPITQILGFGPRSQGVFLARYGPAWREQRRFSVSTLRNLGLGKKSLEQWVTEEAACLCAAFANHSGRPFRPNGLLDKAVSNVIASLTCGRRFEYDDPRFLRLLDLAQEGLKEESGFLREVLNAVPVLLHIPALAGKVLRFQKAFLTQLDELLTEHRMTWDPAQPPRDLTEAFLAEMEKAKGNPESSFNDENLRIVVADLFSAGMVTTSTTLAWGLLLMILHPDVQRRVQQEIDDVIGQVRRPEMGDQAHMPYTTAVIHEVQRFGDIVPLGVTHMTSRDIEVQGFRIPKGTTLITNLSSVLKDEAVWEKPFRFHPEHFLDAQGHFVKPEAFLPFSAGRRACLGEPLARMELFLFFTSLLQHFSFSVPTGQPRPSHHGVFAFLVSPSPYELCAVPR

Cytochrome P450 3A4 = Cytochrome P450 3A4 (Homo sapiens, UniProt P08684);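 note: CYP3A4 tested as one member of a cytochrome P450 panel screen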
Sequence of Cytochrome P450 3A4 (P08684 whole entry): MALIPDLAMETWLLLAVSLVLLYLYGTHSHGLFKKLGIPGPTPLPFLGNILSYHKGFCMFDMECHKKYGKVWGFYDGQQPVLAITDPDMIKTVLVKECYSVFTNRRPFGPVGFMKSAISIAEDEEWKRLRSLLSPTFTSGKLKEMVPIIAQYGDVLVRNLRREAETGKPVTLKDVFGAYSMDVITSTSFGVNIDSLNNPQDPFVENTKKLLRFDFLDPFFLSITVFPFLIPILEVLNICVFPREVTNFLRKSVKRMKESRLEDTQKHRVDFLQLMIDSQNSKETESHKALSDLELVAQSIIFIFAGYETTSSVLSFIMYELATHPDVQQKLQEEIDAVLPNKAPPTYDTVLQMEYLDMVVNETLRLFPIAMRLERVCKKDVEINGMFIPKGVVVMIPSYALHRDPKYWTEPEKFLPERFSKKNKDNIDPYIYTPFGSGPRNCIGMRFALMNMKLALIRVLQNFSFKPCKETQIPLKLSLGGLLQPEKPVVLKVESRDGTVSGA

[1] = biological target: T1, High affinity choline transporter 1 (Homo sapiens, UniProt Q9GZV3); experiment: CHT inhibitors, dose response, cell-based, 5-point CRC, membrane potential dye (AID 504840); type: functional
T1 sequence (Q9GZV3 whole entry): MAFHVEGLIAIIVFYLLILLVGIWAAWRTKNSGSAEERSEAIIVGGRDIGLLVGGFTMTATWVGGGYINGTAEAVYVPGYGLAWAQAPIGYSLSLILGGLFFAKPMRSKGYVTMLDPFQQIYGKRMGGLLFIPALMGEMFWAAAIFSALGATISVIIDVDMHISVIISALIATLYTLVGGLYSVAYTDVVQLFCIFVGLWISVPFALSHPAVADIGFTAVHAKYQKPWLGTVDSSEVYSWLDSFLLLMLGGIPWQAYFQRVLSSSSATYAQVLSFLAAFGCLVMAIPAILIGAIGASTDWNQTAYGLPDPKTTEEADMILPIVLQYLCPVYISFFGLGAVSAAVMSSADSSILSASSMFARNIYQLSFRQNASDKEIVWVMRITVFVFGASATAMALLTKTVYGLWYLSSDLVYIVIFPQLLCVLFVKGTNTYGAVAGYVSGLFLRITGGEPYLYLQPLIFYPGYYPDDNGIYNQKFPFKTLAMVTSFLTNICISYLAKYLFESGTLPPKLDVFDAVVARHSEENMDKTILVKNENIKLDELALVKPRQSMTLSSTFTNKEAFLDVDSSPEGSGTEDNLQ

Cytochrome P450 2C9 = Cytochrome P450 2C9 (Homo sapiens, UniProt P11712)
Sequence of Cytochrome P450 2C9 (P11712 whole entry): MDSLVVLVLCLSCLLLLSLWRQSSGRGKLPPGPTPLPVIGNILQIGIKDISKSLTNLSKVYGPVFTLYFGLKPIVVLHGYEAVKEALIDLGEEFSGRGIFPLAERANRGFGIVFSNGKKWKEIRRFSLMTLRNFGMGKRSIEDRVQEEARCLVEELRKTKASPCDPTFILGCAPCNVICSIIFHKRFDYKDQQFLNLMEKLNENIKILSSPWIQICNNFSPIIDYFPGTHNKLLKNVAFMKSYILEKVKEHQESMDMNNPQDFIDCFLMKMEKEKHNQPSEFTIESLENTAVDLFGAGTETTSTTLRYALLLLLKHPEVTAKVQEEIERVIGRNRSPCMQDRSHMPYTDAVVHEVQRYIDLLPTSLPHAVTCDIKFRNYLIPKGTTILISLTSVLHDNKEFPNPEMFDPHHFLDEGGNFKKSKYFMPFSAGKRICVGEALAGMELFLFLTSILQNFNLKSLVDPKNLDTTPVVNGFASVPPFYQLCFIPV

[2] = biological target: Glyceraldehyde-3-phosphate dehydrogenase (Homo sapiens, UniProt P04406)
Sequence of Glyceraldehyde-3-phosphate dehydrogenase (P04406 whole entry): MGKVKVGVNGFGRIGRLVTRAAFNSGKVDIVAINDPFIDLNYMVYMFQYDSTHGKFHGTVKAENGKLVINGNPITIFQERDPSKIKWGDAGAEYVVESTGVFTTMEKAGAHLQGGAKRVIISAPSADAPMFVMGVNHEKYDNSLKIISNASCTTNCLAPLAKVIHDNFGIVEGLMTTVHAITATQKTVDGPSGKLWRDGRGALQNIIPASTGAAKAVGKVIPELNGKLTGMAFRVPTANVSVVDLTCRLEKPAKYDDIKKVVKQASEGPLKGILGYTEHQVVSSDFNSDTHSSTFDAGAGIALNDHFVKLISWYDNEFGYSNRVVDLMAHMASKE

[3] = biological target: T2, Alkaline phosphatase, tissue-nonspecific isozyme (Homo sapiens, UniProt P05186); experiment: human TNAP enzyme inhibitors, SAR follow-up, biochemical, luminescent, dose response (AID 1056)
T2 sequence (P05186 whole entry): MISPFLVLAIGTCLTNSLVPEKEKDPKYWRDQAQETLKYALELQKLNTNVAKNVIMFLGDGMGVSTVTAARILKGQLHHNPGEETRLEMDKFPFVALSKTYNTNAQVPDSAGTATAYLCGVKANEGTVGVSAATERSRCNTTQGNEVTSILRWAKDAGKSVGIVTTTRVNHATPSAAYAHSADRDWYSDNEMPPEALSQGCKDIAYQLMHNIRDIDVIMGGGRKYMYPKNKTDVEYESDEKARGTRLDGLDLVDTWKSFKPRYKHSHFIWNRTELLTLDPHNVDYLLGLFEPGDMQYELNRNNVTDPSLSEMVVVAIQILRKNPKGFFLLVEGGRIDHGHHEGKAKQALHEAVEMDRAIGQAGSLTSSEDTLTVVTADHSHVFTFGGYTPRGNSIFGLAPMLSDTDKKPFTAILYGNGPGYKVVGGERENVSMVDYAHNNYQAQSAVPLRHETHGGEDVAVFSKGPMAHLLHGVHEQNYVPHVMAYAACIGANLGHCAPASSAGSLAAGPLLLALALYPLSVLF

Caspase-3 = biological target: T3, Caspase-3 (Homo sapiens, UniProt P42574); type: functional;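 note: Dose-response selectivity test against caspase-3 for candidate inhibitors of sentrin-specific proteases (SENPs)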
T3 sequence (P42574 whole entry): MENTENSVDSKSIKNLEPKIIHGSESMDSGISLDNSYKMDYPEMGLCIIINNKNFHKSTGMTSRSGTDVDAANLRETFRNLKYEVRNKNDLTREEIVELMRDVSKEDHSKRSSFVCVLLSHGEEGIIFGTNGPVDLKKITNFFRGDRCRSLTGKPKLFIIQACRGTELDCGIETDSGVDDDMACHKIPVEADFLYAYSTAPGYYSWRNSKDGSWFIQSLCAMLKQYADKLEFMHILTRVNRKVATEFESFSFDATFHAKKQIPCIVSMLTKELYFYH

[4] = biological target: T4, Sentrin-specific protease 7 (Homo sapiens, UniProt Q9BQF6); type: functional;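 note: Luminescence-based dose-response confirmation of ultra-high-throughput screening hits, measuring inhibition of SENP7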
T4 sequence (Q9BQF6 whole entry): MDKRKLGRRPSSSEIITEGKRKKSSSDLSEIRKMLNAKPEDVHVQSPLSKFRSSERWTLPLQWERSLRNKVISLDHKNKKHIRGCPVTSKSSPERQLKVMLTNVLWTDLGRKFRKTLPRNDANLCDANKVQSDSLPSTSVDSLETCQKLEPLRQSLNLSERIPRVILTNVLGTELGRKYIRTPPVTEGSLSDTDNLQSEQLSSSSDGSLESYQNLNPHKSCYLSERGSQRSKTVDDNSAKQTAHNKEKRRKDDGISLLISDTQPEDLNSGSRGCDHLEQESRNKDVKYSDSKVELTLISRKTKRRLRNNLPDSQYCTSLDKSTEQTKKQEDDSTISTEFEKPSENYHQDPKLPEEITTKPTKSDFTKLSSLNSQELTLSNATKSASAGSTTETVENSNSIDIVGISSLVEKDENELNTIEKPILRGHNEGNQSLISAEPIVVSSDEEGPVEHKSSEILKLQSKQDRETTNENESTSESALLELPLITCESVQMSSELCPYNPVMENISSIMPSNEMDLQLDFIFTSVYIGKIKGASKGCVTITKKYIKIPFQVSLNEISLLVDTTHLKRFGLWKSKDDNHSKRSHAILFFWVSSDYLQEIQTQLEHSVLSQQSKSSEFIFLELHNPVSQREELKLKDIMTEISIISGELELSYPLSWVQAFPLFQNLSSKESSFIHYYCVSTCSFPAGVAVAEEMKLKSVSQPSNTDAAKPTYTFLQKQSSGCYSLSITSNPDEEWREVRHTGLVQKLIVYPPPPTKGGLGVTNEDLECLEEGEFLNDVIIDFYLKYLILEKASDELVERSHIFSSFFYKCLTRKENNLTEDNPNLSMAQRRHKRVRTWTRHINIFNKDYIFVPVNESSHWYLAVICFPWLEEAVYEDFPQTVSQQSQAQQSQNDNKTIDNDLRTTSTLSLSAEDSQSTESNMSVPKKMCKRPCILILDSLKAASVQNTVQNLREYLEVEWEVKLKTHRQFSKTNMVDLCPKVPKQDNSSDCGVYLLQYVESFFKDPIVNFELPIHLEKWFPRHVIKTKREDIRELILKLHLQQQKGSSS

[5] = biological target: T5, Sentrin-specific protease 6 (Homo sapiens, UniProt Q9GZR1); type: functional;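 note: Luminescence-based dose-response confirmatory assay of SENP6 inhibition, following up an ultra-high-throughput screen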
T5 sequence (Q9GZR1 whole entry): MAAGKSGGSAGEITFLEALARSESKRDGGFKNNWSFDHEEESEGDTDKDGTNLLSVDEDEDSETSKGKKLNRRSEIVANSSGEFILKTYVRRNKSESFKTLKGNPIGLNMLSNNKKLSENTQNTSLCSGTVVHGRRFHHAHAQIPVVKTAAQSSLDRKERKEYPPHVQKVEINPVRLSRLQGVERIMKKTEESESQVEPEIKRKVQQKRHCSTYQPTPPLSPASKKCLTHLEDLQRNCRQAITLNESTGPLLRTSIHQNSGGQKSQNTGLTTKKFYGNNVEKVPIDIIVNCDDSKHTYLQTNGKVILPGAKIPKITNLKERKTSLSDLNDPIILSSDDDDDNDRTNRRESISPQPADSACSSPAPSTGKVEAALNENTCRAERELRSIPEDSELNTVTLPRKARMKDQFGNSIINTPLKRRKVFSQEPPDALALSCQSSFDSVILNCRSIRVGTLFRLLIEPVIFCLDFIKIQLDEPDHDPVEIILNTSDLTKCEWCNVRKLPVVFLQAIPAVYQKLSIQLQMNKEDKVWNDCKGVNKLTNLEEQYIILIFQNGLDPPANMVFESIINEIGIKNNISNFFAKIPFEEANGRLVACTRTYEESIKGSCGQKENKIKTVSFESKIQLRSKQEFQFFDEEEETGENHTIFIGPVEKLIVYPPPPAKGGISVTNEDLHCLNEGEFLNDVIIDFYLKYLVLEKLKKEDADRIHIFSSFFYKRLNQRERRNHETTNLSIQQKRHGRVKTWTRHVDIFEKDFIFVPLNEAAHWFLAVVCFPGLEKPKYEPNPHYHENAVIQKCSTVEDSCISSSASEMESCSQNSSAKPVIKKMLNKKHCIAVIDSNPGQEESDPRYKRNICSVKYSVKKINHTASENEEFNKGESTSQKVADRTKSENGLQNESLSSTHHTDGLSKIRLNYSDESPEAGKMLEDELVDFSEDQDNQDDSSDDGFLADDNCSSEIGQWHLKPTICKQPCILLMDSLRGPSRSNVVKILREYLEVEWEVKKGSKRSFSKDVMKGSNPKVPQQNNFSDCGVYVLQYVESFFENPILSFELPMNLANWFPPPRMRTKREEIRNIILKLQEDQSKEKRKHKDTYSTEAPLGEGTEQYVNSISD

[6] = biological target: T6, Sentrin-specific protease 8 (Homo sapiens, UniProt Q96LD8); type: functional;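 note: luminescence read-out of SENP8 inhibition, dose-response confirmation following an ultra-high-throughput screen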
T6 sequence (Q96LD8 whole entry): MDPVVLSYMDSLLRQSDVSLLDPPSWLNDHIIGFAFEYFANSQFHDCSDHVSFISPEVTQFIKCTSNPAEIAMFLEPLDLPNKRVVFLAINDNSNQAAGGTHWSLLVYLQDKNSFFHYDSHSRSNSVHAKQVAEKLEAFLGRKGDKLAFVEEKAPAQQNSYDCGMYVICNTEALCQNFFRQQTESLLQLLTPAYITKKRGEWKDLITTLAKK

[7] = biological target: Alkaline phosphatase, placental type (Homo sapiens, UniProt P05187); experiment: PLAP enzyme inhibitors, confirmation, biochemical, luminescence (AID 1512); type: functional
Sequence of Alkaline phosphatase, placental type (P05187 whole entry): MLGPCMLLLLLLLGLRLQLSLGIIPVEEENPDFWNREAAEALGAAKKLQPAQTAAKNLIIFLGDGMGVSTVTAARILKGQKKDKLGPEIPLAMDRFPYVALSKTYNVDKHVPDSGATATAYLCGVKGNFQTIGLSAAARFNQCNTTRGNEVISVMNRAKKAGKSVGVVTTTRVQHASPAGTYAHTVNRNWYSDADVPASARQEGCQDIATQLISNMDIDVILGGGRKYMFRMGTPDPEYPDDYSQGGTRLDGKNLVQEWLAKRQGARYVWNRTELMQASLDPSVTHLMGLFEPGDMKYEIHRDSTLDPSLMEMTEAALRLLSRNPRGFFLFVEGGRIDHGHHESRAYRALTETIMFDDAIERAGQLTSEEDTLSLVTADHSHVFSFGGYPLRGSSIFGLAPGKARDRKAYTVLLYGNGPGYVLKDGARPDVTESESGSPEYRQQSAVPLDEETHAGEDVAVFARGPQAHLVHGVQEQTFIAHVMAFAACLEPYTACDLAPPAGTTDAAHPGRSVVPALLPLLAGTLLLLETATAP

[8] = biological target: T7, Microphthalmia-associated transcription factor (Homo sapiens, UniProt O75030); experiment: TRPM1 promoter luciferase signal decrease, dose response, MITF inhibitor project, cell-based, SK-MEL-5, cherry-picked, set 3 (AID 493073); type: functional
T7 sequence (O75030 whole entry): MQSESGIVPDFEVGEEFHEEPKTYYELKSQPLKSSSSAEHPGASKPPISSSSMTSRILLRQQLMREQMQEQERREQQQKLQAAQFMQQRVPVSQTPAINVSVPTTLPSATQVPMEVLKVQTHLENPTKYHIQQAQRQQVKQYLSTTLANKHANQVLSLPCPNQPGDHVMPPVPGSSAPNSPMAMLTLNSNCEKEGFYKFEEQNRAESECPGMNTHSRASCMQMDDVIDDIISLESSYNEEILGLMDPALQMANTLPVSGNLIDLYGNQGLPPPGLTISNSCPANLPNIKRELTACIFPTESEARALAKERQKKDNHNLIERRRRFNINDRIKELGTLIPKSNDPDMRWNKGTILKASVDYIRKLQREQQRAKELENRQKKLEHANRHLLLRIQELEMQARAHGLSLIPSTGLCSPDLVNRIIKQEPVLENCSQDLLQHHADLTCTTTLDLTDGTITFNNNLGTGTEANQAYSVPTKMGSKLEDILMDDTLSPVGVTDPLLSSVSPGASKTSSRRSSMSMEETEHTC

Sequence of Cytochrome P450 2C19 (P33261 whole entry): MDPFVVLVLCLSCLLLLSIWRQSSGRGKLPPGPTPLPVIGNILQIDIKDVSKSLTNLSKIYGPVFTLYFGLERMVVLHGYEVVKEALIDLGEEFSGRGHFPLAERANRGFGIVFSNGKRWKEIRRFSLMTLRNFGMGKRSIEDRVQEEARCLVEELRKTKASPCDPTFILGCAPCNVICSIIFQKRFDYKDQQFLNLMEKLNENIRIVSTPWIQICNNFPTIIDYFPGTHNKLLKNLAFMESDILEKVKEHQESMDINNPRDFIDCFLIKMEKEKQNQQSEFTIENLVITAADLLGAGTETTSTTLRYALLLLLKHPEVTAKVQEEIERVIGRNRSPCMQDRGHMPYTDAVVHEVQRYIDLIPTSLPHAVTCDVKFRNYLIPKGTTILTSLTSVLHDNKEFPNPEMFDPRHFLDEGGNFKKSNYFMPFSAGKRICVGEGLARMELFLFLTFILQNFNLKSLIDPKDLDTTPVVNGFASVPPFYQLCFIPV

For Nc1nc(=O)n([C@H]2C[C@H](O)[C@@H](CO)O2)cc1F, the AC50 (Escherichia coli) was 33.8 µM (active).

For CCOC(=O)N1CCN(C(=O)c2ccc3nc(N4CCC(C)CC4)sc3c2)CC1, the AC50 (Cytochrome P450 2C19) was 11.2 µM (inconclusive), the AC50 (Cytochrome P450 2D6) was 28.2 µM (inconclusive) and the AC50 (Cytochrome P450 3A4) was “inconclusive”.

With Cc1cc(NS(=O)(=O)c2ccc(NC(=O)COc3c(C)cc(Br)cc3C)cc2)no1 the IC50 [1] was 13.2 µM (active).

For COc1ccc(NC(=O)CCNS(=O)(=O)c2ccc3c(c2)c(=O)n(C)c(=O)n3C)cc1, the AC50 (Cytochrome P450 3A4) was “inconclusive” and the AC50 (Cytochrome P450 2C9) was “inconclusive”.

With O=S(=O)(Nc1cccnc1)c1cc(Cl)ccc1F the IC50 [2] was > 100 µM (not active) and the IC50 [3] was 46.5 µM (active).

With CC1=NN(C(N)=S)C(=O)C1N=Nc1ccccc1 (configuration not stated) the IC50 (Caspase-3) was 3.7 µM (active), the IC50 [4] was 5.13 µM (active) and the IC50 [5] was 21.6 µM (active). For the same compound, the IC50 [6] was > 100 µM (inactive).

CCOC(=O)c1sc(NC(=O)c2ccc(C)s2)cc1C was tested, and the IC50 (Caspase-3) was 20.3 µM (active), the IC50 [4] was 4.46 µM (active) and the IC50 [5] was > 100 µM (inactive). The IC50 [6] was > 100 µM (inactive).

In the case of C/C=C\C(=O)N(CC)c1ccccc1C, the AC50 (Cytochrome P450 3A4) was “inconclusive”.

With Cc1cccc(C)c1OCc1nnc2c3cnn(-c4ccccc4)c3ncn12 the IC50 [2] was > 100 µM (not active), the IC50 [7] was > 100 µM (inactive) and the IC50 [3] was > 100 µM (inactive).

With CCOC(=O)N1CCN(C(=O)CCCn2c(=S)[nH]c3ccsc3c2=O)CC1 the IC50 [1] was 12.3 µM (active).

O=C(CSc1nc2ccccc2s1)c1ccc(O)c(O)c1 was tested, and the IC50 [7] was 3.42 µM (active) and the IC50 [3] was 3.03 µM (active).

With NC(=O)c1c(NC(=O)C(=O)N2CCOCC2)sc2c1CCC2 the AC50 (Escherichia coli) was 23.9 µM (active).

For COC(=O)c1cc(C(=O)c2ccc(Cl)cc2Cl)cn1C, the AC50 (Cytochrome P450 3A4) was “inconclusive” and the AC50 (Cytochrome P450 2C9) was “inconclusive”.

In the case of O=S(=O)(Nc1ccccc1Br)c1cnc2ccccc2c1, the IC50 [2] was > 10 µM (inconclusive) and the IC50 [3] was > 10 µM (inactive).

For CN(C(=O)/C=C/c1ccc([N+](=O)[O-])s1)c1ccccc1, the AC50 [8] was 9.11 µM (active).

In the case of Nc1ccccc1C(=O)NCC1(c2ccccc2)CCCC1, the AC50 (Escherichia coli) was 113 µM (active).

In the case of CCOC(=O)CCc1ccc(NC(=O)/C=C/c2ccc([N+](=O)[O-])o2)cc1, the AC50 [8] was 6.83 µM (active).

In the case of CC(C)c1ccc(NC(=O)CSc2nc(=O)n(CCCN3CCOCC3)c3c2CCC3)cc1, the IC50 [1] was 13.8 µM (active).

CCCCN(C)C(=O)NC1(C(F)(F)F)Oc2ccccc2O1 was tested, and the IC50 [7] was > 100 µM (inactive) and the IC50 [3] was > 100 µM (inactive).

With CCOC(=O)Cn1nc(C)n(-c2ccc(C)cc2)c1=O the AC50 (Cytochrome P450 2C19) was 28.2 µM (inconclusive) and the AC50 (Cytochrome P450 3A4) was “inconclusive”.
